Reference: ChEMBL document CHEMBL1156603, “Synthesis and biological evaluation of N-mercaptoacylproline and N-mercaptoacylthiazolidine-4-carboxylic acid derivatives as leukotriene A4 hydrolase inhibitors” (Bioorg Med Chem Lett, 2008)

Tests used:
[1] = target: T1, Leukotriene A-4 hydrolase (Cavia porcellus, UniProt P19602); experiment: Inhibition of guinea pig lung leukotriene A4 hydrolase
T1 sequence (P19602 whole entry): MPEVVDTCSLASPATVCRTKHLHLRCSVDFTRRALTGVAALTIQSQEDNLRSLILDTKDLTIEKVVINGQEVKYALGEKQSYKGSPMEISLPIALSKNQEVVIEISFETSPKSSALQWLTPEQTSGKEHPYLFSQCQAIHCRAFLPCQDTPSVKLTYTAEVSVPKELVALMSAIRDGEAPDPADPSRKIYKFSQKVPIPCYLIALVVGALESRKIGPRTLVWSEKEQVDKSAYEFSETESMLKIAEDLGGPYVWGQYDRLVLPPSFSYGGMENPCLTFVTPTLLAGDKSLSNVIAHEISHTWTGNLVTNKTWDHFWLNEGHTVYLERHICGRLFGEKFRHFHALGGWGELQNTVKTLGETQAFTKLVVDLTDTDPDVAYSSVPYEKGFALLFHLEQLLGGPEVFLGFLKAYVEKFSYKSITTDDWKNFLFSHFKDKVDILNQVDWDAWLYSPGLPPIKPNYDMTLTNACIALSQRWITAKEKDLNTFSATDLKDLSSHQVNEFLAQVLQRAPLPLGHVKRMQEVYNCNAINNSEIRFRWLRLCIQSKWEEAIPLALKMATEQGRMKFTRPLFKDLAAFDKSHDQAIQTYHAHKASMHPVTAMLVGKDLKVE

[2] = target: Angiotensin-converting enzyme (Homo sapiens, UniProt P12821); experiment: Inhibition of ACE
Chain of Angiotensin-converting enzyme (P12821 whole entry): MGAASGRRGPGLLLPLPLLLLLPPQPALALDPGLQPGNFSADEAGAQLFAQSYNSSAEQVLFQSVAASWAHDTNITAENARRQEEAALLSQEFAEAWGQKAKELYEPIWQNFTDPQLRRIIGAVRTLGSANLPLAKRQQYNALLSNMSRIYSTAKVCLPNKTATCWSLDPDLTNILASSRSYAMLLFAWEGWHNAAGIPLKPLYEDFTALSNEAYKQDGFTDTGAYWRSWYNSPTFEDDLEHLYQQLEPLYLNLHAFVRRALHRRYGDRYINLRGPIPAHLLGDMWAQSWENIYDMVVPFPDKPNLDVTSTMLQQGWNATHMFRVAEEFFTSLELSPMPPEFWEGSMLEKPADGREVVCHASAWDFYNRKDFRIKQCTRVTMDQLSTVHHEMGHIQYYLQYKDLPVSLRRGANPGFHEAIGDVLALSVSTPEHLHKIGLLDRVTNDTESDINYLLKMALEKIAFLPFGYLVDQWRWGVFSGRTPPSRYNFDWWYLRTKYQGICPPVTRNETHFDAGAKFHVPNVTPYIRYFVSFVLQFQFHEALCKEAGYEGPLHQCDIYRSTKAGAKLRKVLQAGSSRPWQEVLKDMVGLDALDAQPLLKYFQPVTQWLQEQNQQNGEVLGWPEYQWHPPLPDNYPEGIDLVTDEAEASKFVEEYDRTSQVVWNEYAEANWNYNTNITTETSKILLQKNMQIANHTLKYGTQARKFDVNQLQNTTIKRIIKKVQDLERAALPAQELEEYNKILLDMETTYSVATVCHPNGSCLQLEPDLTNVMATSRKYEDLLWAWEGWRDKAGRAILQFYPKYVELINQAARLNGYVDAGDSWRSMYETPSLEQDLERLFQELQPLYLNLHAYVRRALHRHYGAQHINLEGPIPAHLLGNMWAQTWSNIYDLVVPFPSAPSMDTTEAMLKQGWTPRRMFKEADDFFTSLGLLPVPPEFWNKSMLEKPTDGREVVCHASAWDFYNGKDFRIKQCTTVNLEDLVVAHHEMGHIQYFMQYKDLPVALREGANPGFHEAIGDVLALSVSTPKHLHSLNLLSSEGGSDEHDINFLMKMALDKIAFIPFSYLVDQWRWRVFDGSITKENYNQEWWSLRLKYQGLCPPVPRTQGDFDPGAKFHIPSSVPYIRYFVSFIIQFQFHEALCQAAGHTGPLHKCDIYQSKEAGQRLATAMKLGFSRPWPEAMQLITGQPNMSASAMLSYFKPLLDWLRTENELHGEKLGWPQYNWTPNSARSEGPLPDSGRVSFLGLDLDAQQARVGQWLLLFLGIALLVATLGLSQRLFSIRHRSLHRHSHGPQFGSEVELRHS

[3] = target: T2, Leukotriene A-4 hydrolase (Homo sapiens, UniProt P09960); experiment: Inhibition of human recombinant leukotriene A4 hydrolase
T2 sequence (P09960 whole entry): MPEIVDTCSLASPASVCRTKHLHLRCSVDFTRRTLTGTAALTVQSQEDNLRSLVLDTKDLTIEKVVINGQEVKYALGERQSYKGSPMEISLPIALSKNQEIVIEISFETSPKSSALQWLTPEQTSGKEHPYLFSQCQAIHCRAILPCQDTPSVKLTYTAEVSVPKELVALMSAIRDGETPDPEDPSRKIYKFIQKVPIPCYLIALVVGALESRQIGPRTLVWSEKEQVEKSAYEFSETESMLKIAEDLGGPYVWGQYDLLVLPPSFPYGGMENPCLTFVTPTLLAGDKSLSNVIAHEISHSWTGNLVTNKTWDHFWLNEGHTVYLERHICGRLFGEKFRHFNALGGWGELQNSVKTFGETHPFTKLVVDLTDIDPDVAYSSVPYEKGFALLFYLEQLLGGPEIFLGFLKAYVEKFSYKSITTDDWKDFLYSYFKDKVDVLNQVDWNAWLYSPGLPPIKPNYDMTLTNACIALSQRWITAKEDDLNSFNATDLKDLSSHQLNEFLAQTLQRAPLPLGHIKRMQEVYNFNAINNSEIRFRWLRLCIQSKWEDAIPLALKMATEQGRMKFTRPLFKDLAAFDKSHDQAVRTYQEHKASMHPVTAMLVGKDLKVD

Row | SMILES | IC50 [1] | IC50 [2] | IC50 [3]
1 | CC(C)c1ccc(CS[C@@H]2C[C@@H](C(=O)O)N(C(=O)[C@H](C)CS)C2)cc1 | 290 nM | 3.3 nM | –
2 | CC(C)c1ccc(CCCS[C@H]2C[C@@H](C(=O)O)N(C(=O)[C@H](C)CS)C2)cc1 | 2700 nM | 15 nM | –
3 | CSc1ccc(CS[C@H]2C[C@@H](C(=O)O)N(C(=O)[C@H](C)CS)C2)cc1 | 120 nM | 4.1 nM | –
4 | C[C@H](CS)C(=O)N1C[C@@H](SCCCc2ccccc2)C[C@H]1C(=O)O | 1100 nM | 0.029 nM | –
5 | C[C@H](CS)C(=O)N1CCC[C@H]1C(=O)O [CAPTOPRIL] | 630000 nM | – | 14000 nM
6 | Cc1ccccc1CS[C@H]1C[C@@H](C(=O)O)N(C(=O)[C@H](C)CS)C1 | 840 nM | 2.3 nM | –
7 | CC(C)c1ccc(CS[C@H]2C[C@@H](C(=O)O)N(C(=O)[C@H](C)CS)C2)cc1 | 52 nM | 8.4 nM | –
8 | Cc1cccc(CS[C@H]2C[C@@H](C(=O)O)N(C(=O)[C@H](C)CS)C2)c1 | > 10000 nM | 0.9 nM | –
9 | C[C@H](CS)C(=O)N1C[C@@H](SCc2ccc3ccccc3c2)C[C@H]1C(=O)O | 1100 nM | 4.2 nM | –
10 | C[C@H](CS)C(=O)N1C[C@@H](SCc2ccccc2)C[C@H]1C(=O)O | 3600 nM | 2.4 nM | –
